Consider eleven compounds from patent US20110136762A1, “FUNGICIDAL PYRIDAZINES” (E.I. Du Pont de Nemours and Company, priority 2008, published 2011).

What all share (type): in vivo
The subject of one test is Erysiphe graminis. The test can be described thus: Test A: wheat powdery mildew, preventive spray on wheat seedlings, visual disease rating. The note with it: 100 = 100% disease control, 0 = no disease control relative to controls; for pest or weed control at 40 ppm / pest or weed control at 200 ppm: Blumeria graminis, 192 h. An excerpt:
General protocol for preparing test suspensions for Tests A-F: […] The resulting test suspensions were then used in Tests A-F. The test suspensions were sprayed to the point of run-off on the test plants. All results are for 200 ppm (equivalent to a rate of 500 g/ha) except where followed by “*” which indicates 40 ppm. The test suspension was sprayed to the point of run-off on wheat seedlings. The following day the seedlings were inoculated with a spore dust of Erysiphe graminis, (the causal agent of wheat powdery mildew) and incubated in a growth chamber at 20° C. for 8 days, after which time visual disease ratings were made. […] A dash (-) indicates no test results. All results are for 200 ppm except where followed by “*”, which indicates 40 ppm.

Test [1] concerns Puccinia recondita f. sp. tritici. Kind of test: Test B: wheat leaf rust, preventive spray on wheat seedlings, visual disease rating. The note with it: 100 = 100% disease control, 0 = no disease control relative to controls; for pest or weed control at 40 ppm / pest or weed control at 200 ppm: 192 h. The text has this:
General protocol for preparing test suspensions for Tests A-F: […] The resulting test suspensions were then used in Tests A-F. The test suspensions were sprayed to the point of run-off on the test plants. All results are for 200 ppm (equivalent to a rate of 500 g/ha) except where followed by “*” which indicates 40 ppm. The test suspension was sprayed to the point of run-off on wheat seedlings. The following day the seedlings were inoculated with a spore suspension of Puccinia recondita f. sp. tritici (the causal agent of wheat leaf rust) and incubated in a saturated atmosphere at 20° C. for 24 h, and then moved to a growth chamber at 20° C. for 7 days, after which time visual disease ratings were made. […] A dash (-) indicates no test results. All results are for 200 ppm except where followed by “*”, which indicates 40 ppm.

For the next test, the system named is Septoria tritici. The test can be described thus: Test C: wheat leaf blotch, preventive spray on wheat seedlings, visual disease rating. The note with it: 100 = 100% disease control, 0 = no disease control relative to controls; for pest or weed control at 40 ppm / pest or weed control at 200 ppm: Zymoseptoria tritici, 504 h. An excerpt: General protocol for preparing test suspensions for Tests A-F: […] The resulting test suspensions were then used in Tests A-F. The test suspensions were sprayed to the point of run-off on the test plants. All results are for 200 ppm (equivalent to a rate of 500 g/ha) except where followed by “*” which indicates 40 ppm. The test suspension was sprayed to the point of run-off on wheat seedlings. The following day the seedlings were inoculated with a spore suspension of Septoria tritici (the causal agent of wheat leaf blotch) and incubated in saturated atmosphere at 20° C. for 48 h, and moved to a growth chamber at 20° C. for 19 additional days, after which time visual disease ratings were made. […] A dash (-) indicates no test results. All results are for 200 ppm except where followed by “*”, which indicates 40 ppm.

Another test relates to Septoria nodorum. Kind of test: Test D: wheat glume blotch, preventive spray on wheat seedlings, visual disease rating. The note with it: 100 = 100% disease control, 0 = no disease control relative to controls; for pest or weed control at 40 ppm / pest or weed control at 200 ppm: Parastagonospora nodorum. The text has this: General protocol for preparing test suspensions for Tests A-F: […] The resulting test suspensions were then used in Tests A-F. The test suspensions were sprayed to the point of run-off on the test plants. All results are for 200 ppm (equivalent to a rate of 500 g/ha) except where followed by “*” which indicates 40 ppm. The test suspension was sprayed to the point of run-off on wheat seedlings. The following day the seedlings were inoculated with a spore suspension of Septoria nodorum (the causal agent of wheat glume blotch) and incubated in a saturated atmosphere at 20° C. for 48 h, and then moved to a growth chamber at 20° C. for 7 days, after which time visual disease ratings were made. […] A dash (-) indicates no test results. All results are for 200 ppm except where followed by “*”, which indicates 40 ppm.

The next test deals with Alternaria solani. Kind of test: Test E: tomato early blight, preventive spray on tomato seedlings, visual disease rating. Particulars: 100 = 100% disease control, 0 = no disease control relative to controls; for pest or weed control at 40 ppm / pest or weed control at 200 ppm: Alternaria solani. The text has this: General protocol for preparing test suspensions for Tests A-F: […] The resulting test suspensions were then used in Tests A-F. The test suspensions were sprayed to the point of run-off on the test plants. All results are for 200 ppm (equivalent to a rate of 500 g/ha) except where followed by “*” which indicates 40 ppm. The test suspension was sprayed to the point of run-off on tomato seedlings. […] A dash (-) indicates no test results. All results are for 200 ppm except where followed by “*”, which indicates 40 ppm.

In another test the test system is Botrytis cinerea. Kind of test: Test F: tomato Botrytis, preventive spray on tomato seedlings, visual disease rating. Particulars: 100 = 100% disease control, 0 = no disease control relative to controls; for pest or weed control at 40 ppm / pest or weed control at 200 ppm: Botrytis cinerea. An excerpt:
General protocol for preparing test suspensions for Tests A-F: […] The resulting test suspensions were then used in Tests A-F. The test suspensions were sprayed to the point of run-off on the test plants. All results are for 200 ppm (equivalent to a rate of 500 g/ha) except where followed by “*” which indicates 40 ppm. The test suspension was sprayed to the point of run-off on tomato seedlings. The following day the seedlings were inoculated with a spore suspension of Botrytis cinerea (the causal agent of tomato Botrytis) and incubated in saturated atmosphere at 20° C. for 48 h, and then moved to a growth chamber at 24° C. for 3 days, after which time visual disease ratings were made. […] A dash (-) indicates no test results. All results are for 200 ppm except where followed by “*”, which indicates 40 ppm.

Usually pest or weed control stands for how far the test organism was held down. Read a high pest or weed control as a strong effect.

Marks after values point to notes of the source that are not given here.

For `COc1cc(OC)cc(-c2c(-c3ccccc3F)nnc(C)c2-c2c(F)cc(OC)cc2F)c1` [Compound 28, 4-(2,6-difluoro-4-methoxyphenyl)-5-(3,5-dimethoxyphenyl)-6-(2-fluorophenyl)-3-methylpyridazine], the pest or weed control at 40 ppm was 85% in the test with Erysiphe graminis (40 ppm (marked *)); 100% in test [1] (40 ppm (marked *)); 97% in the test with Septoria tritici (40 ppm (marked *)); 100% in the test with Septoria nodorum (40 ppm (marked *)); 100% in the test on Alternaria solani (40 ppm (marked *)); 100% with Botrytis cinerea (40 ppm (marked *)).
`COc1cc(OC)cc(-c2c(-c3ccccc3F)nnc(C)c2-c2c(F)cc(OCCCN(C)C)cc2F)c1` [Compound 29, 3-[4-[5-(3,5-dimethoxyphenyl)-6-(2-fluorophenyl)-3-methyl-4-pyridazinyl]-3,5-difluorophenoxy]-N,N-dimethyl-1-propanamine]: the pest or weed control at 200 ppm came to 92% in the test on Erysiphe graminis (200 ppm); 100% in test [1] (200 ppm); 98% in the test on Septoria tritici (200 ppm); 92% in the test with Septoria nodorum (200 ppm); 99% with Alternaria solani (200 ppm); 99% with Botrytis cinerea (200 ppm).
In the case of `CNCCCOc1cc(F)c(-c2c(C)nnc(-c3ccccc3F)c2-c2cc(OC)cc(OC)c2)c(F)c1` [Compound 30, 3-[4-[5-(3,5-dimethoxyphenyl)-6-(2-fluorophenyl)-3-methyl-4-pyridazinyl]-3,5-difluorophenoxy]-N-methyl-1-propanamine], the pest or weed control at 200 ppm in the test on Erysiphe graminis (200 ppm) was determined as 89%; in test [1] (200 ppm) it was 100%; in the test with Septoria tritici (200 ppm), 99%; with Septoria nodorum (200 ppm), 98%; with Alternaria solani (200 ppm), 98%; in the test with Botrytis cinerea (200 ppm), 100%.
For `COc1cc(OC)c(Cl)c(-c2c(-c3ccccc3F)nnc(C)c2-c2c(F)cc(F)cc2F)c1` [Compound 31, 4-(2-chloro-3,5-dimethoxyphenyl)-3-(2-fluorophenyl)-6-methyl-5-(2,4,6-trifluorophenyl)pyridazine], the pest or weed control at 40 ppm with Erysiphe graminis (40 ppm (marked *)) was determined as 97%; in test [1] (40 ppm (marked *)), 100%; in the test with Septoria tritici (40 ppm (marked *)), 99%; in the test with Septoria nodorum (40 ppm (marked *)), 100%; in the test on Alternaria solani (40 ppm (marked *)) it was 100%; in the test with Botrytis cinerea (40 ppm (marked *)) it was 100%.
With `COc1cc(OC)c(Br)c(-c2c(-c3ccccc3F)nnc(C)c2-c2c(F)cc(F)cc2F)c1` [Compound 32], the “Test A rating (disease control, wheat powdery mildew)” value (“Test A rating” below) in the test with Erysiphe graminis (40 ppm (marked *)) was 90* %. Further, in test [1] (40 ppm (marked *)), the “Test B rating (disease control, wheat leaf rust)” value (“Test B rating” for short) was 100* %. In the test with Septoria tritici (40 ppm (marked *)), the “Test C rating (disease control, wheat leaf blotch)” value (“Test C rating” below) is on record as 98* %. The “Test D rating (disease control, wheat glume blotch)” value (shortened to “Test D rating”) in the test on Septoria nodorum (40 ppm (marked *)) was 99* %. Also, the “Test E rating (disease control, tomato early blight)” value (shortened to “Test E rating”) in the test on Alternaria solani (40 ppm (marked *)) was 99* %. Further, the “Test F rating (disease control, tomato Botrytis)” value (“Test F rating” for short) with Botrytis cinerea (40 ppm (marked *)) is 100* %.
Regarding `COc1cc(-c2c(-c3ccccc3F)nnc(C)c2-c2c(F)cc(F)cc2F)cc(OC)c1Cl` [Compound 33], the “Test A rating” value in the test on Erysiphe graminis (40 ppm (marked *)) is 0* %. The “Test B rating” value in test [1] (40 ppm (marked *)) is on record as 97* %. The “Test C rating” value in the test on Septoria tritici (40 ppm (marked *)) is 95* %. For the same compound, in the test on Septoria nodorum (40 ppm (marked *)), the “Test D rating” value is 0* %. The “Test E rating” value in the test with Alternaria solani (40 ppm (marked *)) is reported as 61* %. For the same compound, the “Test F rating” value in the test with Botrytis cinerea (40 ppm (marked *)) is reported as 99* %.
Consider `COc1cc(OC)cc(-c2c(-c3ccccc3)nnc(Cl)c2-c2c(F)cc(F)cc2F)c1` [Compound 34], for which, in the test on Erysiphe graminis (200 ppm), the “Test A rating” value came out at 99%. Besides, the “Test B rating” value in test [1] (200 ppm) came to 100%. In addition, the “Test C rating” value in the test with Septoria tritici (200 ppm) worked out at 100%. The “Test D rating” value with Septoria nodorum (200 ppm) stood at 93%. Besides, the “Test E rating” value in the test on Alternaria solani (200 ppm) is given as 99%. Also, the “Test F rating” value with Botrytis cinerea (200 ppm) was 100%.
For the compound `COc1cc(OC)cc(-c2c(-c3ccccc3)nnc(C)c2-c2c(F)cc(F)cc2F)c1` [Compound 35, 4-(3,5-dimethoxyphenyl)-6-methyl-3-phenyl-5-(2,4,6-trifluorophenyl)pyridazine], the pest or weed control at 40 ppm is 90% with Erysiphe graminis (40 ppm (marked *)), 100% in test [1] (40 ppm (marked *)) and 100% in the test on Septoria tritici (40 ppm (marked *)). The figures for the pest or weed control at 200 ppm in the test with Septoria nodorum (200 ppm), in the test on Alternaria solani (200 ppm) and in the test with Botrytis cinerea (200 ppm) were 95%, 99% and 99%, respectively.
Take `COc1cc(OC)c(Cl)c(-c2c(-c3ccccc3)nnc(C)c2-c2c(F)cc(F)cc2F)c1` [Compound 36, 4-(2-chloro-3,5-dimethoxyphenyl)-6-methyl-3-phenyl-5-(2,4,6-trifluorophenyl)pyridazine]: the pest or weed control at 40 ppm in the test on Erysiphe graminis (40 ppm (marked *)) is 98%; in test [1] (40 ppm (marked *)) it was 99%; in the test on Septoria tritici (40 ppm (marked *)) it was 99%; with Septoria nodorum (40 ppm (marked *)) it was 100%; with Alternaria solani (40 ppm (marked *)), 99%; with Botrytis cinerea (40 ppm (marked *)) it was 99%.
Turning to `COc1cc(OC)cc(-c2c(-c3ccccc3)nnc(C)c2-c2c(F)cc(OC)cc2F)c1` [Compound 37, 5-(2,6-difluoro-4-methoxyphenyl)-4-(3,5-dimethoxyphenyl)-6-methyl-3-phenylpyridazine], the pest or weed control at 40 ppm stood at 69% with Erysiphe graminis (40 ppm (marked *)); 100% in test [1] (40 ppm (marked *)); 98% in the test with Septoria tritici (40 ppm (marked *)); 99% in the test on Septoria nodorum (40 ppm (marked *)); 99% with Alternaria solani (40 ppm (marked *)); 99% in the test on Botrytis cinerea (40 ppm (marked *)).
Turning to `COc1cc(OC)cc(-c2c(-c3ccccc3F)nnc(Cl)c2-c2c(F)cc(F)c([Si](C)(C)C)c2F)c1` [Compound 38, 3-chloro-5-(3,5-dimethoxyphenyl)-6-(2-fluorophenyl)-4-[2,4,6-trifluoro-3-(trimethylsilyl)phenyl]pyridazine], the pest or weed control at 40 ppm came to 0% in the test with Erysiphe graminis (40 ppm (marked *)); 98% in test [1] (40 ppm (marked *)); 94% in the test with Septoria tritici (40 ppm (marked *)); 0% in the test with Septoria nodorum (40 ppm (marked *)); 26% with Alternaria solani (40 ppm (marked *)); 99% with Botrytis cinerea (40 ppm (marked *)).
